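Following 48 hours of exposure in 96-well plates, responses at five concentrations were used to interpolate endpoints linearly. TGI denotes the concentration required for complete inhibition of growth.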
How the values were obtained:
Test in all cases: inhibition of tumour cell growth, NCI panel, 48 h
[1] = system: 786-0 renal
[2] = system: A498 renal
[3] = system: A549 NSCLC
[4] = system: ACHN renal
[5] = system: BT-549 breast
[6] = system: CAKI-1 renal
[7] = system: CCRF-CEM leukemia
[8] = system: COLO 205 colon
[9] = system: DU-145 prostate
[10] = system: EKVX NSCLC
[11] = system: HCC-2998 colon
[12] = system: HCT-116 colon
[13] = system: HCT-15 colon
[14] = system: HL-60(TB) leukemia
[15] = system: HOP-62 NSCLC
[16] = system: HS 578T breast
[17] = system: HT29 colon
[18] = system: IGROV1 ovarian
[19] = system: K-562 leukemia
[20] = system: KM12 colon
[21] = system: LOX IMVI melanoma
[22] = system: M14 melanoma
[23] = system: MALME-3M melanoma
[24] = system: MCF7 breast
[25] = system: MDA-MB-231 breast
[26] = system: MDA-MB-435
[27] = system: MDA-N
[28] = system: MOLT-4 leukemia
[29] = system: NCI-H226 lung
[30] = system: NCI-H23 lung
[31] = system: NCI-H460 lung
[32] = system: NCI-H522 lung
[33] = system: NCI/ADR-RES ovarian
[34] = system: OVCAR-3 ovarian
[35] = system: OVCAR-4 ovarian
[36] = system: OVCAR-5 ovarian
[37] = system: OVCAR-8 ovarian
[38] = system: PC-3 prostate
[39] = system: RPMI-8226 leukemia
[40] = system: RXF 393 renal
[41] = system: SF-268 CNS
[42] = system: SF-295 CNS
[43] = system: SF-539 CNS
[44] = system: SK-MEL-2 melanoma
[45] = system: SK-MEL-28 melanoma
[46] = system: SK-MEL-5 melanoma
[47] = system: SK-OV-3 ovarian
[48] = system: SN12C renal
[49] = system: SNB-19 CNS
[50] = system: SNB-75 CNS
[51] = system: SR leukemia
[52] = system: SW-620 colon
[53] = system: T-47D breast
[54] = system: TK-10 renal
[55] = system: U251 CNS
[56] = system: UACC-257 melanoma
[57] = system: UACC-62 melanoma
[58] = system: UO-31 renal
[59] = system: HOP-92 NSCLC

Measured: TGI

S=c1nc2sc3c(c2c(Nc2ccc(Br)cc2)[nH]1)CCN(N1CCc2c(sc4nc(=S)[nH]c(Nc5ccc(Br)cc5)c24)C1)C3
15.5 µM: [1]
24.9 µM: [21]
17.1 µM: [22]
31.3 µM: [2]
44.2 µM: [27]
42.5 µM: [40]
31 µM: [45]
44.5 µM: [32]
19 µM: [55]
not listed: [59]
> 50 µM: all other assays above

Cc1[nH]c(=O)nc2nc3ccc(Cl)cc3c(NC(C)(CO)CO)c12
> 81 µM: [25]
> 67.9 µM: [32]
10.4 µM: [58]
> 95.3 µM: [49]
61.3 µM: [15]
> 96.5 µM: [50]
88.8 µM: [40]
> 100 µM: all other assays above

C[C@]12CC[C@H](O)CC1=CC[C@@H]1[C@@H]2CC[C@]2(C)c3nc(Cl)ccc3C[C@@H]12
> 94.8 µM: [48]
99.2 µM: [47]
> 50.4 µM: [7]
> 81.3 µM: [13]
> 71.6 µM: [10]
> 67.6 µM: [15]
> 73.2 µM: [34]
> 75.7 µM: [41]
37.2 µM: [43]
46.8 µM: [50]
96.9 µM: [3]
not listed: [58]
> 100 µM: all other assays above
